In patent publication US8853196B2, “Aminochromane, aminothiochromane and amino-1,2,3,4-tetrahydroquinoline derivatives, pharmaceutical compositions containing them, and their use in therapy” (AbbVie Deutschland GmbH & Co. KG, priority 2011, dated 2014) one finds Ki data, which are given here for 28 molecules.

Where a name gives a salt, the structure may show the parent alone.

The target of this assay is T1, human GlyT1c transporter (Homo sapiens, UniProt P48067).
T1 construct: expressed in transfected cells; host or cells: CHO cells (recombinant; membranes)
T1 sequence (P48067 1-706): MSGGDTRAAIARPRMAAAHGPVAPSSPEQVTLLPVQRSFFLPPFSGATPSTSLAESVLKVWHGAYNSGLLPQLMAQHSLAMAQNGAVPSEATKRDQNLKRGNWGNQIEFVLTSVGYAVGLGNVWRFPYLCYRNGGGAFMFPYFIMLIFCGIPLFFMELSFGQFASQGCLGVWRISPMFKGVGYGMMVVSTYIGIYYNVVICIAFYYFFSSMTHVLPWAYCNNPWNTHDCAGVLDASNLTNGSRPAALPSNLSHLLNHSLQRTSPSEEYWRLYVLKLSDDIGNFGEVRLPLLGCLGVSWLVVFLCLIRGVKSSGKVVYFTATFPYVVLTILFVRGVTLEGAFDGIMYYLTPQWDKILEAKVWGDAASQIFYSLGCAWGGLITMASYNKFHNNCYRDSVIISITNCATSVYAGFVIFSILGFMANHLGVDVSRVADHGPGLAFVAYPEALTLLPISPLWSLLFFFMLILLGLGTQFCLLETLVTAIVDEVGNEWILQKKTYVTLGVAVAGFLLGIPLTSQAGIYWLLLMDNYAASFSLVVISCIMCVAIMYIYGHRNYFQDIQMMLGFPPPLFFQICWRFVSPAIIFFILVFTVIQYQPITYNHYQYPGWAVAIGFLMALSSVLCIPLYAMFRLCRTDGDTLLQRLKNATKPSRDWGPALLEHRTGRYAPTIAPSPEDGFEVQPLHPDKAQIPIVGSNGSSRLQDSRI
Kind of assay: Radioligand binding assay using recombinant CHO cell membranes expressing human GlyT1. To be noted: values given as upper bounds, read-out: radioligand binding Kiapp. How it is done:
2. Radioligand Binding Assays Using Recombinant CHO Cell Membranes Expressing Human GlyT1:
Radioligand binding to human GlyT1c transporter-expressing membranes was determined as described in Mezler et al., Molecular Pharmacology 74:1705-1715, 2008.
In the case of `CC1CCCN(S(=O)(=O)NCc2ccc3c(c2)C(Cc2ccccc2)C(N)CO3)C1` (stereo not shown) [Example 43, 3-Methyl-piperidine-1-sulfonic acid (3-amino-4-benzyl-chroman-6-ylmethyl)-amide 2,2,2-trifluoroacetate], the Ki was at most 1000 nM. Consider `N[C@@H]1COc2ccc(CNS(=O)(=O)CC3CC3)cc2[C@@H]1Cc1ccccc1` (relative stereo) [Example 67, cis-N-(-3-Amino-4-benzyl-chroman-6-ylmethyl)-C-cyclopropyl-methanesulfonamide], for which the Ki was at most 10 nM.

For `Cn1cnc(S(=O)(=O)NCc2ccc3c(c2)[C@H](Cc2ccccc2)[C@H](NCCC2CCCC2)CO3)c1` (relative stereo) [Example 34, cis-N-((-4-benzyl-3-((2-cyclopentylethyl)amino)chroman-6-yl)methyl)-1-methyl-1H-imidazole-4-sulfonamide 2,2,2-trifluoroacetate], the Ki is at most 10000 nM. With `Cn1cnc(S(=O)(=O)NCc2ccc3c(c2)[C@H](Cc2ccccc2)[C@H](NCCC2CC2)CO3)c1` (relative stereo) [Example 33, cis-N-((-4-benzyl-3-((2-cyclopropylethyl)amino)chroman-6-yl)methyl)-1-methyl-1H-imidazole-4-sulfonamide 2,2,2-trifluoroacetate] the figure was at most 10 nM.

In the case of `CC(C)CN[C@@H]1COc2ccc(CNS(=O)(=O)c3cn(C)cn3)cc2[C@@H]1Cc1ccccc1` (relative stereo) [Example 37, cis-N-((-4-benzyl-3-(isobutylamino)chroman-6-yl)methyl)-1-methyl-1H-imidazole-4-sulfonamide 2,2,2-trifluoroacetate], the Ki is at most 10 nM.

Consider `CCCS(=O)(=O)NCCOc1ccc2c(c1)[C@H](Cc1ccccc1)[C@H](N1CCC1)CO2` (relative stereo) [Example 14, cis-Propane-1-sulfonic acid [2-(3-azetidin-1-yl-4-benzyl-chroman-6-yloxy)-ethyl]-amide; trifluoro-acetic acid salt], for which the Ki was at most 100 nM. `Cc1csc(S(=O)(=O)NCc2ccc3c(c2)C(Cc2ccccc2)C(N)CO3)c1` (stereo not shown) [Example 56, 4-Methyl-thiophene-2-sulfonic acid (3-amino-4-benzyl-chroman-6-ylmethyl)-amide 2,2,2-trifluoroacetate]: the Ki was at most 100 nM. With `Cn1cc(S(=O)(=O)NCc2ccc3c(c2)[C@H](Cc2ccccc2)[C@H](N2CCCC2)CO3)cn1` (relative stereo) [Example 66, cis-1-Methyl-1H-pyrazole-4-sulfonic acid (-4-benzyl-3-pyrrolidin-1-yl-chroman-6-ylmethyl)-amide], the Ki was at most 10 nM. With `O=S(=O)(CC1CC1)NCCOc1ccc2c(c1)[C@H](Cc1ccccc1)[C@H](N1CCC1)CO2` (relative stereo) [Example 11, cis-N-[2-(3-Azetidin-1-yl-4-benzyl-chroman-6-yloxy)-ethyl]-C-cyclopropyl-methanesulfonamide] the figure was at most 1000 nM; with `Cn1cc(S(=O)(=O)NCCOc2ccc3c(c2)[C@H](Cc2ccccc2)[C@H](N2CCC2)CO3)cn1` (relative stereo) [Example 16, cis-1-Methyl-1H-pyrazole-4-sulfonic acid [2-(3-azetidin-1-yl-4-benzyl-chroman-6-yloxy)-ethyl]-amide], at most 10 nM; with `CCS(=O)(=O)NCc1ccc2c(c1)C(Cc1ccccc1)C(N1CCC1)CO2` (stereo not shown) [Example 19, Ethanesulfonic acid (3-azetidin-1-yl-4-benzyl-chroman-6-ylmethyl)-amide; trifluoro-acetic acid salt], at most 1000 nM. Regarding `Cn1cnc(S(=O)(=O)NCc2ccc3c(c2)[C@H](Cc2ccccc2)[C@H](NCC2CCC2)CO3)c1` (relative stereo) [Example 41, cis-N-((-4-benzyl-3-((cyclobutylmethyl)amino)chroman-6-yl)methyl)-1-methyl-1H-imidazole-4-sulfonamide 2,2,2-trifluoroacetate], the Ki is at most 10 nM. For `CN[C@@H]1COc2ccc(CNS(C)(=O)=O)cc2[C@H]1Cc1ccccc1` (relative stereo) [Example 61, trans-N-(-4-Benzyl-3-methylamino-chroman-6-ylmethyl)-methanesulfonamide], the Ki was at most 1000 nM. Turning to `O=S(=O)(CC1CC1)NCc1ccc2c(c1)C(Cc1ccccc1)C(N1CCC1)CO2` (stereo not shown) [Example 21, N-(3-Azetidin-1-yl-4-benzyl-chroman-6-ylmethyl)-C-cyclopropyl-methane-sulfonamide; trifluoro-acetic acid salt], the Ki is at most 100 nM. Regarding `CN[C@@H]1COc2ccc(CNS(=O)(=O)c3cnn(C)c3)cc2[C@@H]1Cc1ccccc1` (relative stereo) [Example 6a, cis-N-{[4-benzyl-3-(methylamino)-3,4-dihydro-2H-chromen-6-yl]methyl}-1-methyl-1H-pyrazole-4-sulfonamide], the Ki is at most 10 nM. In the case of `CCS(=O)(=O)NCCOc1ccc2c(c1)[C@@H](Cc1ccccc1)[C@H](NC)C(C)(C)O2` (relative stereo) [Example 73, trans-Ethanesulfonic acid [2-(-4-benzyl-2,2-dimethyl-3-methylamino-chroman-6-yloxy)-ethyl]-amide], the Ki is at most 1000 nM. Regarding `CN[C@@H]1COc2ccc(CNS(=O)(=O)c3cnn(C)c3)cc2[C@H]1Cc1ccccc1` (relative stereo) [Example 6b, trans-N-{[-4-benzyl-3-(methylamino)-3,4-dihydro-2H-chromen-6-yl]methyl}-1-methyl-1H-pyrazole-4-sulfonamide], the Ki was at most 10 nM. Consider `CN[C@@H]1COc2ccc(OCCNS(=O)(=O)c3cn(C)cn3)cc2[C@@H]1Cc1ccccc1` (relative stereo) [Example 2a, cis-N-(2-{[-4-Benzyl-3-(methylamino)-3,4-dihydro-2H-chromen-6-yl]oxy}ethyl)-1-methyl-1H-imidazole-4-sulfonamide], for which the Ki is at most 10 nM. For the molecule `Cn1cnc(S(=O)(=O)NCc2ccc3c(c2)[C@@H](Cc2ccccc2)[C@H](N)CO3)c1` (relative stereo) [Example 13, trans-1-Methyl-1H-imidazole-4-sulfonic acid (3-amino-4-benzyl-chroman-6-ylmethyl)-amide], the Ki was at most 10 nM. As for `CCS(=O)(=O)NCCOc1cc2c(cc1F)OC[C@@H](NC)[C@@H]2Cc1ccccc1` (relative stereo) [Example 30, trans-Ethanesulfonic acid [2-(-4-benzyl-7-fluoro-3-methylamino-chroman-6-yloxy)-ethyl]-amide], the Ki is at most 1000 nM. As for `CCCS(=O)(=O)NCc1ccc2c(c1)C(Cc1ccccc1)C(N1CCC1)CO2` (stereo not shown) [Example 20, Propane-1-sulfonic acid (3-azetidin-1-yl-4-benzyl-chroman-6-ylmethyl)-amide; trifluoro-acetic acid salt], the figure is at most 100 nM. Turning to `CC(C)CS(=O)(=O)NCc1ccc2c(c1)C(Cc1ccccc1)C(N)CO2` (stereo not shown) [Example 51, 2-Methyl-propane-1-sulfonic acid (3-amino-4-benzyl-chroman-6-ylmethyl)-amide 2,2,2-trifluoroacetate], the Ki was at most 10000 nM. With `NC1COc2ccc(CNS(=O)(=O)c3ccoc3)cc2C1Cc1ccccc1` (stereo not shown) [Example 54, Furan-3-sulfonic acid (3-amino-4-benzyl-chroman-6-ylmethyl)-amide 2,2,2-trifluoroacetate] the figure was at most 100 nM. As for `CCCS(=O)(=O)NCCOc1ccc2c(c1)[C@H](Cc1ccccc1)[C@H](NC)CO2` (relative stereo) [Example 3a, cis-N-(2-{[-4-Benzyl-3-(methylamino)-3,4-dihydro-2H-chromen-6-yl]oxy}ethyl)propane-1-sulfonamide], the figure is at most 100 nM. `CCCS(=O)(=O)NCc1ccc2c(c1)[C@H](Cc1ccccc1)[C@H](NC)CO2` (relative stereo) [Example 7a, cis-N-{[4-Benzyl-3-(methylamino)-3,4-dihydro-2H-chromen-6-yl]methyl}propane-1-sulfonamide]: the Ki was at most 10 nM.

Take `N[C@@H]1COc2ccc(CNS(=O)(=O)C3CCC3)cc2[C@H]1Cc1ccccc1` (relative stereo) [Example 70, trans-Cyclobutanesulfonic acid (-3-amino-4-benzyl-chroman-6-ylmethyl)-amide]: the Ki was at most 1000 nM. On to `CCCS(=O)(=O)NCc1ccc2c(c1)[C@@H](Cc1ccccc1)[C@H](NC)CO2` (relative stereo) [Example 7b, trans-N-{[4-benzyl-3-(methylamino)-3,4-dihydro-2H-chromen-6-yl]methyl}propane-1-sulfonamide], for which the Ki was at most 100 nM. `CN[C@@H]1COc2ccc(OCCNS(=O)(=O)CC3CC3)cc2[C@@H]1Cc1ccccc1` (relative stereo) [Example 4a, cis-N-(2-{[-4-Benzyl-3-(methylamino)-3,4-dihydro-2H-chromen-6-yl]oxy}ethyl)-1-cyclopropylmethanesulfonamide]: the Ki is at most 10 nM.
